# Results taken from patent publication US20050112573A1, “Method of detecting toxic substance” (priority 2001, published 2005).
# System: yeast genes (level of expressed mRNA)
# Assay: DNA chip analysis of expressed mRNA of yeast genes after 2 h culture with a toxic chemical substance
# Type: cell-based, Saccharomyces cerevisiae S288C
# Protocol: Yeast (Saccharomyces cerevtisiae S288C (α SUC2mal mel gap2 CUP1)) were cultured at 25° C. on YPD medium (yeast extract 1%, polypepton 2%, glucose 2%). One of toxic chemical substances was added to the cell at logarithmic growth phase, and the cell was further cultured for two hours. Cell was cultured without any chemical substance in the same condition, and was used as control. Concentrations of the chemical substances were defined to inhibit the growth of the yeast but not lead to death.
# After the completion of cultivation, the culture was centrifuged to collect the cells. To the cells, sodium acetate buffer (50 mM sodium acetate, 10 mM EDTA, 1% SDS) was added, and the mixture was shaken at 65° C. for five minutes, followed by returning to room temperature, and obtaining the supernatant, which procedure was repeated two times. To the supernatant, ½ amount of a solution of phenol/chloroform was added, and the mixture was centrifuged to give a supernatant, which was added with an equal amount of chloroform, and the mixture was centrifuged to give a supernatant. To the supernatant, an equal amount of isopropanol containing 0.3 M sodium acetate was added, and the mixture was allowed to stand at room temperature for 30 minutes, after which the mixture was centrifuged to give a sediment of the whole RNAs. Seventy % ethanol was added to the sediment, and the mixture was again centrifuged to give a sediment, which was then dried and dissolved in water. mRNA was isolated from the whole RNAs as followings. In view of the fact that a poly A chain is attached to the 3′ terminus of mRNA, a polynucleotide having a poly T structure which was immobilized on the surface of latex beads was used to trap the mRNA, and then the mRNA was washed and eluted with spine column (Oligotex-dT30<Super>mRNA Purification Kit, Takara). Reverse transcription of the mRNA was conducted with a reverse transcriptase (Super Script II Reverse Transcriptase; catalogue No. 18064-014, GibcoBRL) using fluorescence-labeled nucleotides to give cDNAs that were introduced with Cy3-dUTP or Cy5-dUTP during the reverse transcription.
# The labeled cDNAs were dissolved in TE buffer (10 mM Tris-HCl/1 mM EDTA, pH8.0), and the solution was dropped on the DNA chip containing the whole genes of yeast (DNA Chip Research Inc. Japan) so that the cDNAs were hybridized on the DNA chip at 65° C. for over 12 hours. The fluoresces intensity of the DNA chip was read with a scanner, and the ratio relative to the fluorescence intensity resulting from the absence of chemical substance was estimated as the following, which is shown in Tables 1 to 9: [formula]
# In the Tables, “Intensity” indicated in the rightmost column is a value of the level of expressed mRNA of each gene in control cells as divided by the average level of the expressions of the whole genes.
smiles,measurement,setting,value
"CCCCC[C@H](O)CC(=O)CCc1ccc(O)c(OC)c1 [(13), gingerol]",level of expressed mRNA in the presence of chemical substance/in its absence,gene YGR282C,1.2
same,The level of expressed mRNA in the presence of chemical substance/absence: YGR293C,gene YGR293C,0.7
same,The level of expressed mRNA in the presence of chemical substance/absence: YHL006C,gene YHL006C,1.1
same,The level of expressed mRNA in the presence of chemical substance/absence: YHL021C,gene YHL021C,2.6
same,The level of expressed mRNA in the presence of chemical substance/absence: YHL037C,gene YHL037C,1.0
same,level of expressed mRNA in the presence of chemical substance/in its absence,gene YHR037W,1.1
same,The level of expressed mRNA in the presence of chemical substance/absence: YHR083W,gene YHR083W,1.1
same,level of expressed mRNA in the presence of chemical substance/in its absence,gene YHR092C,0.5
same,The level of expressed mRNA in the presence of chemical substance/absence: YHR095W,gene YHR095W,0.7
same,The level of expressed mRNA in the presence of chemical substance/absence: YHR105W,gene YHR105W,1.4
same,The level of expressed mRNA in the presence of chemical substance/absence: YHR134W,gene YHR134W,1.2
same,level of expressed mRNA in the presence of chemical substance/in its absence,gene YHR137W,0.6
same,The level of expressed mRNA in the presence of chemical substance/absence: YHR180W,gene YHR180W,1.3
same,The level of expressed mRNA in the presence of chemical substance/absence: YHR181W,gene YHR181W,0.7
same,level of expressed mRNA in the presence of chemical substance/in its absence,gene YHR190W,1.7
same,level of expressed mRNA in the presence of chemical substance/in its absence,gene YIL033C,2.5
same,The level of expressed mRNA in the presence of chemical substance/absence: YIL108W,gene YIL108W,1.3
same,The level of expressed mRNA in the presence of chemical substance/absence: YIL127C,gene YIL127C,0.4
same,level of expressed mRNA in the presence of chemical substance/in its absence,gene YIL154C,1.7
same,The level of expressed mRNA in the presence of chemical substance/absence: YIL165C,gene YIL165C,1.5
same,level of expressed mRNA in the presence of chemical substance/in its absence,gene YIL167W,1.2
same,level of expressed mRNA in the presence of chemical substance/in its absence,gene YIR035C,1.1
same,The level of expressed mRNA in the presence of chemical substance/absence: YJL017W,gene YJL017W,1.5
same,The level of expressed mRNA in the presence of chemical substance/absence: YJL032W,gene YJL032W,1.4
same,The level of expressed mRNA in the presence of chemical substance/absence: YJL037W,gene YJL037W,1.1
same,The level of expressed mRNA in the presence of chemical substance/absence: YJL049W,gene YJL049W,0.9
same,level of expressed mRNA in the presence of chemical substance/in its absence,gene YJL088W,1.0
same,The level of expressed mRNA in the presence of chemical substance/absence: YJL097W,gene YJL097W,0.7
same,level of expressed mRNA in the presence of chemical substance/in its absence,gene YJL132W,1.3
same,level of expressed mRNA in the presence of chemical substance/in its absence,gene YJL196C,0.6
same,The level of expressed mRNA in the presence of chemical substance/absence: YJR030C,gene YJR030C,0.7
same,The level of expressed mRNA in the presence of chemical substance/absence: YJR044C,gene YJR044C,2.0
same,level of expressed mRNA in the presence of chemical substance/in its absence,gene YJR142W,1.6
same,level of expressed mRNA in the presence of chemical substance/in its absence,gene YJR148W,1.1
same,level of expressed mRNA in the presence of chemical substance/in its absence,gene YJR159W,2.1
same,The level of expressed mRNA in the presence of chemical substance/absence: YKL051W,gene YKL051W,1.2
same,The level of expressed mRNA in the presence of chemical substance/absence: YKL059C,gene YKL059C,1.3
same,level of expressed mRNA in the presence of chemical substance/in its absence,gene YKL067W,1.7
same,The level of expressed mRNA in the presence of chemical substance/absence: YKL090W,gene YKL090W,0.8
same,The level of expressed mRNA in the presence of chemical substance/absence: YKL094W,gene YKL094W,1.7
same,The level of expressed mRNA in the presence of chemical substance/absence: YKL097C,gene YKL097C,0.9
same,The level of expressed mRNA in the presence of chemical substance/absence: YKL100C,gene YKL100C,1.3
same,level of expressed mRNA in the presence of chemical substance/in its absence,gene YKR039W,1.3
same,The level of expressed mRNA in the presence of chemical substance/absence: YKR040C,gene YKR040C,0.6
same,The level of expressed mRNA in the presence of chemical substance/absence: YLR097C,gene YLR097C,1.1
same,level of expressed mRNA in the presence of chemical substance/in its absence,gene YLR142W,1.2
same,level of expressed mRNA in the presence of chemical substance/in its absence,gene YLR180W,0.6
same,The level of expressed mRNA in the presence of chemical substance/absence: YLR226W,gene YLR226W,0.7
same,level of expressed mRNA in the presence of chemical substance/in its absence,gene YLR273C,1.7
same,level of expressed mRNA in the presence of chemical substance/in its absence,gene YLR300W,0.2
same,level of expressed mRNA in the presence of chemical substance/in its absence,gene YLR307W,1.0
same,The level of expressed mRNA in the presence of chemical substance/absence: YLR338W,gene YLR338W,1.2
same,The level of expressed mRNA in the presence of chemical substance/absence: YLR339C,gene YLR339C,0.1
same,The level of expressed mRNA in the presence of chemical substance/absence: YLR392C,gene YLR392C,1.4
same,The level of expressed mRNA in the presence of chemical substance/absence: YLR415C,gene YLR415C,1.0
same,The level of expressed mRNA in the presence of chemical substance/absence: YLR427W,gene YLR427W,2.5
same,The level of expressed mRNA in the presence of chemical substance/absence: YML013W,gene YML013W,1.2
